Test results reported in patent publication US12544382B2, “2, 4, 6-tri-substituted pyrimidine compound as ATR kinase inhibitor” (BEIJING TIDE PHARMACEUTICAL CO., LTD., priority 2019, dated 2026).
pIC50: −log10 of the molar value.

Assays:
[1] = In vitro liver microsomal stability assay, mouse; format: in vitro ADME; conditions: mouse liver microsomes, final concentration 2.0 nM, with or without NADPH, within 60 minutes; read-out: Mouse liver microsomes t1/2
Procedure: (§1) Experiments on the stability of the compound of the present disclosure in liver microsomes were performed. The compounds to be tested (final concentration: 2.0 nM) were co-incubated with human/mouse liver microsomes with or without NADPH, and the concentration of compounds in the incubation supernatant was detected within 60 minutes.

[2] = system: MV4-11 (leukemia) cells; assay: In vitro cell proliferation inhibition assay (CellTiter-Glo), MV4-11; format: cell-based, human; conditions: Homo sapiens, MV4-11, 120 h, MV4-11 cells
Procedure: (§2) By detecting the effect of compound on cell activity in vitro in the tumor cell lines TOV21G (ovarian cancer) and MV4-11 (leukemia), the effect of compound inhibiting cell proliferation was studied in this assay.
(§3) TOV21G cells and MV4-11 cells were purchased from American Type Culture Collection (ATCC).
MV-4-11 cells were cultured in IMDM medium (containing 20% FBS), each well of a 96-well culture plate was inoculated with about 10000 cells, and treated with different concentrations (0-10 μM) of compounds to be tested in triplex. Blank wells (containing medium only) and control wells (inoculated with cells but not treated with drug) were set. Cells were cultured for 120 hours, 40 μL Cell Titer-Glo solution was added to each well, incubated with shaking for 20 min in the dark, 100 μL solution was transferred from each well to a 96-well white plate, and the luminescence value was read by Biotek Synergy H1 multifunctional microplate reader. Inhibition rate (%)=100%×(control well−test well)/(control well−blank well)

[3] = In vitro liver microsomal stability assay, human; format: in vitro ADME; conditions: human liver microsomes, final concentration 2.0 nM, with or without NADPH, within 60 minutes; read-out: Human liver microsomes t1/2
Procedure: as §1

[4] = system: TOV21G (ovarian cancer) cells; assay: In vitro cell proliferation inhibition assay (CellTiter-Glo), TOV21G; format: cell-based, human; conditions: Homo sapiens, 120 hours
Procedure: as §2, §3
TOV21G cells were cultured in MCDB105/M199 medium (containing 15% […]), and used for testing when the cell confluence reaches 85% or more. Each well of a 96-well culture plate was inoculated with about 1000 cells, cultured for 24 hours, and treated with different concentrations (0-10 μM) of compound solution to be tested in triplex. Blank wells (contains medium only) and control wells (seeded cells was not treated with drug) were set. Cells were cultured for 120 hours, 40 μL Cell Titer-Glo solution (Promega, #G7573) were added to each well, incubated with shaking for 20 min in the dark, 100 μL solution was transferred from each well to a 96-well white plate (Corning, #3917), and the luminescence value was read by Biotek Synergy H1 multifunctional microplate reader.

[5] = In vivo pharmacokinetics assay in mice; conditions: mouse; male ICR mice, oral gavage 10 mg/kg, plasma
Procedure: The in vivo pharmacokinetics of the compounds was studied.
Male ICR mice (3 in each group) were orally administered by gavage with a dose of 10 mg/kg. Plasma samples were collected before (0 h) and after administration (0.25, 0.5, 1, 2, 4, 6, 8, 24 h), and the collected samples were analyzed by LC/MS and data were collected. The collected analytical data were used to calculate the relevant pharmacokinetic parameters by Analyst v1.6.2 (AB Applied Biosystems Company, USA).

CNc1nc2ccccc2n1-c1nc(-c2c(C)nn(C3CCNCC3)c2C(F)(F)F)cc(N2CCOC[C@H]2C)n1 [Compound D24]
half-life at 2 nM [1]: 1.83 h
pIC50 [2]: 7.10
half-life at 2 nM [3]: 3.38 h
pIC50 [4]: 6.92
AUC [5]: 5.45 µg·h/mL
Cmax [5]: 0.467 µg/mL
Tmax [5]: 5.3 h
half-life [5]: 3.1 h
